Experimental findings from patent US20220106301A1, “ACETAMIDO-PHENYLBENZAMIDE DERIVATIVES AND METHODS OF USING THE SAME” (Athenex, Inc., priority 2020, published 2022) are described below.

Some results are limits rather than exact numbers.

CYP3A4, sequence (P08684 whole entry): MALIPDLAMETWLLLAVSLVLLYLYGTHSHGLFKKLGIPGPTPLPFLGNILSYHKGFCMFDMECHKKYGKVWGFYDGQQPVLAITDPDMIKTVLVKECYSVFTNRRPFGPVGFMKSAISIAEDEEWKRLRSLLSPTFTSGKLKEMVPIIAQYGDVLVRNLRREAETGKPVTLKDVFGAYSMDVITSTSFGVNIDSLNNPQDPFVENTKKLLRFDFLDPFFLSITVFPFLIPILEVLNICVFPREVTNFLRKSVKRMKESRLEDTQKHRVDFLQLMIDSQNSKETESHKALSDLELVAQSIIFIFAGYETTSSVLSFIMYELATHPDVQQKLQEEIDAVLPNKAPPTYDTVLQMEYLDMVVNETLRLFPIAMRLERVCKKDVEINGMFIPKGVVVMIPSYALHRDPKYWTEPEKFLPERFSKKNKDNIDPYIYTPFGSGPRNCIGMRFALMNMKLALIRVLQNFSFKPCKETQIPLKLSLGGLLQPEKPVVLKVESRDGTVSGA

This assay deals with CYP3A4 (Homo sapiens, UniProt P08684). The assay can be described thus: Determination of CYP3A4 inhibitory activity (human liver microsome, Luciferin-IPA). The note with it: CYP3A4 IC50 (nM), 37° C. 11 minutes. As to the method:
The standard final Compound concentrations were 37, 111, 333, 1000, and 3000 nM. 12.5 μL of the Compound dilutions were transferred to a white 96-well plate. […] 25 μL of the buffer was added to each well. The plates were incubated at 37° C. for 11 minutes. 50 μL of luciferin detection reagent (Promega V9002) was added and the plates were incubated at room temperature for 5 minutes. The plate was read with a luminometer.
The dose-response curve and IC50 were obtained by fitting data to nonlinear regression model using GraphPad Prism software (v6.0).
On the technique in general: Liver microsomes are vesicles of endoplasmic reticulum, rich in cytochrome P450 enzymes.
Consider `COc1cc(NC(=O)c2cc(=O)c3ccccc3o2)c(C(=O)Nc2ccc(CCN(C)Cc3cccc(-c4nc(C)no4)c3)cc2)cc1OC` [Compound 157], for which the half-maximal inhibitory concentration (IC50) was above 1000 nM.

`COc1cc(NC(=O)c2cc(=O)c3ccccc3o2)c(C(=O)Nc2ccc(CCN(Cc3cncc(-c4ccccc4)c3)Cc3ccc4c(cnn4C)c3)cc2)cc1OC` [Compound 254]: the half-inhibitory concentration (IC50) is above 1000 nM. In turn, `COc1cc(NC(=O)c2cc(=O)c3ccccc3o2)c(C(=O)Nc2ccc(CCN(Cc3cccc(-n4cnc(C)c4)c3)Cc3ccc4c(cnn4C)c3)cc2)cc1OC` [Compound 23] showed a concentration for half-maximal inhibition (IC50) of 250 to 500 nM. As for `COc1cc(NC(=O)c2cc(=O)c3ccccc3o2)c(C(=O)Nc2ccc(CCN(C)C(=O)c3ccc(-n4ccnc4)cc3)cc2)cc1OC` [Compound 123], the figure is below 100 nM. Then `COc1cc(NC(=O)c2cc(=O)c3ccccc3o2)c(C(=O)Nc2ccc(CCN(C)Cc3ccc(-n4cncn4)cc3)cc2)cc1OC` [Compound 19], with 250 to 500 nM; and `COc1cc(NC(=O)c2cc(=O)c3ccccc3o2)c(C(=O)Nc2ccc(CCN(C)Cc3cccc(-c4cncs4)c3)cc2)cc1OC` [Compound 15], with 500 to 1000 nM. Then `COC(=O)c1ccc(C(=O)Nc2ccc(CCN(C)Cc3ccc4c(cnn4C)c3)cc2)c(NC(=O)c2ccccn2)c1` [Compound 277], with above 1000 nM. For `COc1cc(NC(=O)c2cc(=O)c3ccccc3o2)c(C(=O)Nc2ccc(CCNCc3cccnc3)cc2)cc1OC` [Compound 214], the concentration for half-maximal inhibition (IC50) is above 1000 nM. Then `COc1cncc(CN(CCc2ccc(NC(=O)c3cc(OC)c(OC)cc3NC(=O)c3cnc4ccccc4c3)cc2)Cc2ccc3c(cnn3C)c2)c1` [Compound 51], with 250 to 500 nM; and `CCN(CCc1ccc(NC(=O)c2cc(OC)c(OC)cc2NC(=O)c2cc(=O)c3ccccc3o2)cc1)Cc1ccc(O)c(OC)c1` [Compound 135], with 500 to 1000 nM. As for `COc1cc(NC(=O)c2cc(=O)c3ccccc3o2)c(C(=O)Nc2ccc(CCN(Cc3cccc(-n4ccnc4)c3)Cc3ccc4c(cnn4C)c3)cc2)cc1OC` [Compound 16], the figure is 250 to 500 nM; as for `COc1cc(NC(=O)c2cnc3ccccc3n2)c(C(=O)Nc2ccc(CCN(Cc3ccc4c(cnn4C)c3)Cc3ccc(C)c4ncccc34)cc2)cc1OC` [Compound 173], above 1000 nM.

Consider `COc1cc(NC(=O)c2cnc3ccccc3n2)c(C(=O)Nc2ccc(CCN(Cc3ccc4cnn(C)c4c3)Cc3ccc4cnn(C)c4c3)cc2)cc1OC` [Compound 168], for which the IC50 was above 1000 nM. Then `CCOc1cc(C(=O)Nc2ccc(CCN(C)Cc3ccc(-n4ccnc4)cc3)cc2)c(NC(=O)c2cc(=O)c3ccccc3o2)cc1OC` [Compound 108], with 250 to 500 nM. As for `COc1cc(NC(=O)c2cc(=O)c3ccccc3o2)c(C(=O)Nc2ccc(CCN(Cc3cncc(C)c3)Cc3ccc4c(c3)c(C)nn4C)cc2)cc1OC` [Compound 64], the figure is 100 to 250 nM; as for `COc1cc(NC(=O)c2cc(=O)c3ccccc3o2)c(C(=O)Nc2ccc(CCN(Cc3ccc4c(cnn4C)c3)Cc3cccnc3N)cc2)cc1OC` [Compound 226], above 1000 nM; as for `CCN(CCc1ccc(NC(=O)c2cc(OC)c(OC)cc2NC(=O)c2cc(=O)c3ccccc3o2)cc1)Cc1ccc(OCCn2ccnc2)cc1` [Compound 131], 250 to 500 nM. Then `COc1cnccc1CN(CCc1ccc(NC(=O)c2cc(OC)c(OC)cc2NC(=O)c2cc(=O)c3ccccc3o2)cc1)Cc1ccc2c(cnn2C)c1` [Compound 49], with 250 to 500 nM; and `C#Cc1cccc(CN(C)CCc2ccc(NC(=O)c3cc(OC)c(OC)cc3NC(=O)c3cc(=O)c4ccccc4o3)cc2)c1` [Compound 116], with above 1000 nM; and `COc1cc(NC(=O)c2cc(=O)c3ccccc3o2)c(C(=O)Nc2ccc(CCN(Cc3cccc(-n4ccnc4)c3)CC(C)C)cc2)cc1OC` [Compound 99], with 250 to 500 nM. Compound `COC(=O)c1ccc(C(=O)Nc2ccc(CCN(C)Cc3ccc4c(cnn4C)c3)cc2)c(NC(=O)c2cc(=O)c3ccccc3o2)c1` [Compound 270] returned a half-maximal inhibitory concentration (IC50) above 1000 nM. Then `COc1ccc(CN(CCc2ccc(NC(=O)c3cc(OC)c(OC)cc3NC(=O)c3cc(=O)c4ccccc4o3)cc2)Cc2ccc(-n3ccnc3)cc2)cc1OC` [Compound 28], with 100 to 250 nM; and `COc1cc(NC(=O)c2cc(=O)c3ccccc3o2)c(C(=O)NCc2ccc(CN(Cc3ccc(-c4cncs4)cc3)Cc3ccc4c(cnn4C)c3)cc2)cc1OC` [Compound 238], with above 1000 nM. Then `COc1cc(NC(=O)c2cc(=O)c3ccccc3o2)c(C(=O)Nc2ccc(CCN(Cc3cncc(Cl)c3)Cc3ccc4c(cnn4C)c3)cc2)cc1OC` [Compound 227], with 500 to 1000 nM.

Consider `COc1cc(NC(=O)c2cc(=O)c3cc(C)ccc3o2)c(C(=O)Nc2ccc(CCN(Cc3cncc(O)c3)Cc3ccc4c(cnn4C)c3)cc2)cc1OC` [Compound 59], for which the IC50 was in the range of 100 to 250 nM. As for `COc1cc(NC(=O)c2cc(=O)c3ccccc3o2)c(C(=O)Nc2ccc(CCN(CC3=CNCN3C)Cc3ccc4cnn(C)c4c3)cc2)cc1OC` [Compound 35], the figure is above 1000 nM. As for `COCCOc1cncc(CN(CCc2ccc(NC(=O)c3cc(OC)c(OC)cc3NC(=O)c3cnc4ccccc4n3)cc2)Cc2ccc3c(cnn3C)c2)c1` [Compound 62], the figure is 500 to 1000 nM; as for `COCCOc1cncc(CN(CCc2ccc(NC(=O)c3cc(OC)c(OC)cc3NC(=O)c3cc(=O)c4ccccc4o3)cc2)Cc2ccc3c(cnn3C)c2)c1` [Compound 56], 250 to 500 nM; as for `COc1cc(NC(=O)c2cc(=O)c3ccccc3o2)c(C(=O)Nc2ccc(CCN(Cc3cccc(-n4ccnc4)c3)Cc3ccc(C)c4ncccc34)cc2)cc1OC` [Compound 206], above 1000 nM. On to `CCN(CCc1ccc(NC(=O)c2cc(OC)c(OC)cc2NC(=O)c2cc(=O)c3ccccc3o2)cc1)Cc1ccc2c(cnn2C)c1` [Compound 106], for which the half-maximal inhibitory concentration (IC50) was above 1000 nM. Then `COc1cc(NC(=O)c2cc(=O)c3ccccc3o2)c(C(=O)Nc2ccc(CCN(Cc3cccnc3)Cc3cccc(-n4ccnc4)c3)cc2)cc1OC` [Compound 216], with 100 to 250 nM; and `CCN(CCc1ccc(NC(=O)c2cc(OC)c(OC)cc2NC(=O)c2cc(=O)c3ccccc3o2)cc1)Cc1ccc(OCCn2ccnc2)c(OC)c1` [Compound 134], with 100 to 250 nM.

The compound `CN(CCc1ccc(NC(=O)c2ccc(C(=O)OCc3cscn3)cc2NC(=O)c2cc(=O)c3ccccc3o2)cc1)Cc1ccc2c(cnn2C)c1` [Compound 280] had a 50% inhibitory concentration (IC50) of 100 to 250 nM. As for `COc1cc(NC(=O)c2cnc3c(O)cccc3c2)c(C(=O)Nc2ccc(CCN(C)Cc3ccc4c(cnn4C)c3)cc2)cc1OC` [Compound 136], the figure is above 1000 nM; as for `COc1ccc(CN(CCc2ccc(NC(=O)c3cc(OC)c(OC)cc3NC(=O)c3cc(=O)c4ccccc4o3)cc2)Cc2cccc(-n3ccnc3)c2)cc1C#N` [Compound 219], 100 to 250 nM. Compound `CCn1ncc2cc(CN(C)CCc3ccc(NC(=O)c4cc(OC)c(OC)cc4NC(=O)c4cc(=O)c5ccccc5o4)cc3)ccc21` [Compound 191] yielded a concentration for half-maximal inhibition (IC50) above 1000 nM. Then `COc1cc(NC(=O)c2cc(=O)c3ccccc3o2)c(C(=O)Nc2ccc(CCN(Cc3ccncc3)Cc3ccc4cnn(C)c4c3)cc2)cc1OC` [Compound 182], with below 100 nM; and `Cn1ncc2cc(CNCCc3ccc(NC(=O)c4ccc(C(=O)O)cc4NC(=O)c4cc(=O)c5ccccc5o4)cc3)ccc21` [Compound 256], with above 1000 nM.

In turn, `COc1cc(NC(=O)c2cc(=O)c3ccccc3o2)c(C(=O)Nc2ccc(CCN(Cc3ccc4c(cnn4C)c3)Cc3cnccc3O)cc2)cc1OC` [Compound 228] gave an IC50 above 1000 nM. As for `CCN(CCc1ccc(NC(=O)c2cc(OC)c(OC)cc2NC(=O)c2cc(=O)c3ccccc3o2)cc1)Cc1ccc2[nH]ncc2c1` [Compound 184], the figure is above 1000 nM; as for `COc1cc2c(cc1OC)CN(CCc1ccc(NC(=O)c3ccc(C(=O)O)cc3NC(=O)c3cc(=O)c4ccccc4o3)cc1)CC2` [Compound 261], above 1000 nM; as for `COc1cc(NC(=O)c2cnc3ccccc3n2)c(C(=O)Nc2ccc(CCN(Cc3cncc(C(C)C)c3)Cc3ccc4c(cnn4C)c3)cc2)cc1OC` [Compound 75], 250 to 500 nM. As for `COc1cc(NC(=O)c2cc(=O)c3ccccc3o2)c(C(=O)Nc2ccc(CCN(Cc3cncc(O)c3)Cc3ccc4c(c3)c(C)nn4C)cc2)cc1OC` [Compound 247], the figure is 100 to 250 nM. Then `COc1cc(NC(=O)c2cc(=O)c3ccccc3o2)c(C(=O)Nc2ccc(CCN(Cc3cccc(-n4ccnc4)c3)Cc3cccc(-n4ccnc4C)c3)cc2)cc1OC` [Compound 245], with 250 to 500 nM; and `COc1cc(NC(=O)c2cc(=O)c3ccccc3o2)c(C(=O)Nc2ccc(CCN(C)Cc3cccc(-n4cnc(C)c4)c3)cc2)cc1OC` [Compound 11], with 500 to 1000 nM; and `COc1cc(NC(=O)c2cc(=O)c3ccccc3o2)c(C(=O)Nc2ccc(CCN(Cc3ccc(-n4ccnc4C)cc3)Cc3ccc4c(cnn4C)c3)cc2)cc1OC` [Compound 241], with above 1000 nM. For the compound `COc1cc(NC(=O)c2cc(=O)c3ccccc3o2)c(C(=O)Nc2ccc(CCN(C)Cc3ccc(-c4cscn4)cc3)cc2)cc1OC` [Compound 112], the IC50 was above 1000 nM. Then `CCN(CCc1ccc(NC(=O)c2cc(OC)c(OC)cc2NC(=O)c2cc(=O)c3ccccc3o2)cc1)Cc1cccc(OCCn2ccnc2)c1` [Compound 130], with below 100 nM. As for `CCN(CCc1ccc(NC(=O)c2cc(OC)c(OC)cc2NC(=O)c2cc(=O)c3ccccc3o2)cc1)Cc1ccc(-n2cncn2)cc1` [Compound 20], the figure is 100 to 250 nM. Then `COc1cc(NC(=O)c2cnc3ccccc3n2)c(C(=O)Nc2ccc(CCN(Cc3ccc4c(cnn4C)c3)Cc3ccc4c(cnn4C)c3)cc2)cc1OC` [Compound 167], with above 1000 nM; and `COc1ccc(CN(CCc2ccc(NC(=O)c3cc(OC)c(OC)cc3NC(=O)c3cc(=O)c4ccccc4o3)cc2)Cc2cncn2C)cc1OC` [Compound 147], with below 100 nM.

In general, IC50 refers to the concentration at which inhibition is half-maximal.
